What was measured:
[1] = biological target: Adrenergic receptor alpha-2 (Homo sapiens) (UniProt P08913+P18825+P18089); settings: Cavia porcellus; Cardiac atrium
Description: Alpha-2 adrenergic receptor activity in guinea pig right atrium

[2] = biological target: D(2) dopamine receptor (Homo sapiens) (UniProt P14416); settings: Oryctolagus cuniculus; Artery
Description: Activity at Dopamine receptor D2 in rabbit ear artery

[3] = biological target: D(1A) dopamine receptor (Homo sapiens) (UniProt P21728); settings: Oryctolagus cuniculus
Description: Dopamine receptor D1 like evaluated for mesenteric blood flow increase in anesthetized rabbit

[4] = biological target: T1, Adrenergic receptor alpha-1 (Homo sapiens, UniProt P35348+P25100+P35368); assay: Activity at alpha-1 adrenergic receptor in rabbit aorta rings; type: tissue-based, Oryctolagus cuniculus; settings: target entry is the homologue from another species
T1 sequence (P35348 whole entry): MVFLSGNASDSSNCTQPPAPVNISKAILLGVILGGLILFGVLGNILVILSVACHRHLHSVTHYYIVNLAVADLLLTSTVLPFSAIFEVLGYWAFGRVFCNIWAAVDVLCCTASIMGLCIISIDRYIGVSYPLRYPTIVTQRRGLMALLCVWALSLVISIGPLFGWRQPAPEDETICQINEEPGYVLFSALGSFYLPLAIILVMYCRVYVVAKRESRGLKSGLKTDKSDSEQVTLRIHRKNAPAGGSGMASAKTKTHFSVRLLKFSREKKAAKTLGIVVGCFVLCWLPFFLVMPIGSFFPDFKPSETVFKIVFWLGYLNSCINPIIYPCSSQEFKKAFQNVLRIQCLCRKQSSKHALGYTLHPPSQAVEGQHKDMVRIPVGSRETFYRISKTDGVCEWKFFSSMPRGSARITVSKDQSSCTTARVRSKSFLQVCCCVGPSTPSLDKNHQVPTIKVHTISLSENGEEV
T1 sequence (P25100 whole entry): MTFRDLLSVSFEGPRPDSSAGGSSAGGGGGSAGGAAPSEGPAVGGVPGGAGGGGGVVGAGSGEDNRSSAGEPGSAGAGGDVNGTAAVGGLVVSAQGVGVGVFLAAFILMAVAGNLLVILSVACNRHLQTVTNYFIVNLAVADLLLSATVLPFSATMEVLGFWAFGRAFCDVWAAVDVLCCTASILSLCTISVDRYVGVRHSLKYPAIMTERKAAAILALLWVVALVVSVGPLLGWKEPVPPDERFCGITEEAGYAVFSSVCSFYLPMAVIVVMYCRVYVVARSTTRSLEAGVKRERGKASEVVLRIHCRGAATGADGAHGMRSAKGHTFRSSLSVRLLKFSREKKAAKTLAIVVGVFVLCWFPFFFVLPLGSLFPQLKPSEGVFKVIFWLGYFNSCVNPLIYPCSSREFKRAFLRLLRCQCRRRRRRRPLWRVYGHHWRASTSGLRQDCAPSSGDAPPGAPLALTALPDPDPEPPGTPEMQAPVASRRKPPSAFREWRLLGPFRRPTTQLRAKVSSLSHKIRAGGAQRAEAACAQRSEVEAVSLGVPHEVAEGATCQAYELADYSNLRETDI
T1 sequence (P35368 whole entry): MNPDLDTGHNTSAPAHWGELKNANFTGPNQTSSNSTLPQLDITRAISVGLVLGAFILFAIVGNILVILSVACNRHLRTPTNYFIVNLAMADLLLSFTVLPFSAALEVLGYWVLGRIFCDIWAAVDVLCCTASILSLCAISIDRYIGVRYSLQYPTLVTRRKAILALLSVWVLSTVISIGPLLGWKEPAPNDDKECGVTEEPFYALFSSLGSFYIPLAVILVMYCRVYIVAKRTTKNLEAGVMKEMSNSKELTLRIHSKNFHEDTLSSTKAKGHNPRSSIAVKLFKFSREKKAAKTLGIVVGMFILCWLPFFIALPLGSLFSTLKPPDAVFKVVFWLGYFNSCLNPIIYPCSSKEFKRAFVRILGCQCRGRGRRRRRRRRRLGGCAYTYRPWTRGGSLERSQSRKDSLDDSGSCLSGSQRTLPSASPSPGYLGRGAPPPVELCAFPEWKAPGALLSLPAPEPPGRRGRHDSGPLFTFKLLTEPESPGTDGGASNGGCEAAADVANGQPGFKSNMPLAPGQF

[5] = biological target: Adrenergic receptor alpha-1 (Homo sapiens) (UniProt P35348+P25100+P35368); settings: Oryctolagus cuniculus; Aorta

D(1A) dopamine receptor (Homo sapiens), sequence (P21728 whole entry): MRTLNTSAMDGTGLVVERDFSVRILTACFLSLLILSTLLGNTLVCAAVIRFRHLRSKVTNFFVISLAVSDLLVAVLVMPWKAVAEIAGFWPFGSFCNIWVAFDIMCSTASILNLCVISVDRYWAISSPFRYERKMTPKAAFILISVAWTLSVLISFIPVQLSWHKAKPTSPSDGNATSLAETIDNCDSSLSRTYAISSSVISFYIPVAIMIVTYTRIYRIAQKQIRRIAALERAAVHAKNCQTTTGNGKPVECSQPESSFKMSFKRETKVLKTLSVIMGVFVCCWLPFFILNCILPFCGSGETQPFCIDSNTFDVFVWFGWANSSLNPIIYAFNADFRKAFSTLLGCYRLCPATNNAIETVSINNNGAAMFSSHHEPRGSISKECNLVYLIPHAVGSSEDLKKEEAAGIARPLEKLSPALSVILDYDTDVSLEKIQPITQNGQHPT
D(2) dopamine receptor (Homo sapiens), sequence (P14416 whole entry): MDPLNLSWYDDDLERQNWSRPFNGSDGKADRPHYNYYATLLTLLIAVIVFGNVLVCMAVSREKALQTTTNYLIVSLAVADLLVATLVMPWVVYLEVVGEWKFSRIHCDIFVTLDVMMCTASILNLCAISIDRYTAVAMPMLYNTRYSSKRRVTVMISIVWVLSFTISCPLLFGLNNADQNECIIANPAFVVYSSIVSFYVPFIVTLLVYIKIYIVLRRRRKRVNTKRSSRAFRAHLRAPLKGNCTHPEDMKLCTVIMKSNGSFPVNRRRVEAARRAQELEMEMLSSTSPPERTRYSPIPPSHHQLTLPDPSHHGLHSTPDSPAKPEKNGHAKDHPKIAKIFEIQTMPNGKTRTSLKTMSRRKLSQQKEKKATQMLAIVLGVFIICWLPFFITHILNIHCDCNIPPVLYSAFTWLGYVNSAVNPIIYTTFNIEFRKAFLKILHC

SMILES | pD2 [1] | pD2 [2] | ED20 [3] [nM/kg] | pA2 [4] | pD2 [5]
CCCN(CCCCCNCCOc1ccccc1OC)[C@H]1CCc2c(ccc(O)c2O)C1 | 6.5 | 8.7 | 107 | 6.5 | –
COc1ccccc1OCCNCCCCCCN[C@H]1CCc2c(ccc(O)c2O)C1 | < 5 | 6.5 | > 3000 | 7.1 | –
CCCN(CCCCCCN(CCC)[C@H]1CCc2c(ccc(O)c2O)C1)CCOc1ccccc1OC | 6 | 7.4 | 407 | < 5 | –
CCCN(CCCCCCCNCCOc1ccccc1OC)[C@H]1CCc2c(ccc(O)c2O)C1 | 5.7 | 8.4 | 35 | 6.8 | –
CNC[C@H](O)c1cccc(O)c1 | – | – | – | – | 6.5
CCCN(CCCCCCNCCOc1ccccc1OC)CCc1ccc(O)c(O)c1 | < 5 | 7.56 | > 3000 | 6.5 | –
CCCN(CCCCCCNCCOc1ccccc1OC)[C@@H]1CCc2c(ccc(O)c2O)C1 | < 5 | 6.5 | 1050 | 6.9 | –
CCCCN(CCCCCCNCCOc1ccccc1OC)[C@H]1CCc2c(ccc(O)c2O)C1 | < 5 | 7.5 | 60 | 6.6 | –
CCCN(CCCCCCNCCOc1ccccc1OC)[C@H]1CCc2c(ccc(O)c2O)C1 | 6.7 | 9 | 13 | 6.5 | –
CCCN(CCCCCCN(C)CCOc1ccccc1OC)[C@H]1CCc2c(ccc(O)c2O)C1 | 6.9 | 8.5 | 34 | < 5 | –

— ChEMBL document CHEMBL1129706, “Z1046, a novel peripheral dopaminergic agent” (Bioorg Med Chem Lett, 1996)
